Reference: paper PMC11729550, “Discovery of indole analogue Tc3 as a potent pyroptosis inducer and identification of its combination strategy against hepatic carcinoma” (Theranostics, 2025)

Columns and labels:
[1] = system: CD8^+ T cells; test: Fluorescence staining and flow cytometry of tumor-infiltrating cells; assay type: in vivo, C57 BL/6N mice; details: Hepa1-6 CDXs, 10 mg/kg
Experimental: The lymphocytes were isolated from the tumors and blocked by purified CD16/32 antibody. Next, the cells were stained with fluorescent-conjugated antibodies (FITC-CD11b, APC-F4/80, PE-CD86, Alexa Flour® 700-CD206, APC-Ly6G, FITC-CD45, APC-CD8a, Pacific Blue^TM-IFN-γ). The fluorescence intensity was measured by a FACS Calibur, and data were analyzed with FlowJo software.
The mice tumor tissues were embedded into the OCT reagent and sliced into 10 μm sections via the freezing microtome. The sections were fixed by paraformaldehyde, blocked by 3% bovine serum albumin (BSA, Beyotime, ST2254), and incubated with the primary antibodies overnight. In the second day, the sections were incubated with the fluorescent‐conjugated antibodies and 4′,6‐diamidino‐2‐phenylindole (DAPI, Solarbio, C0065) for nuclei. The tissue fluorescent images were captured by a confocal microscope (Leica, TCS SP8) and analyzed by imageJ software.

[2] = system: HepG2, SK-Hep1, and PLC-PRF5 cells; test: Cell proliferation assays (growth curve, colony formation); assay type: cell-based, human; details: 0-4 μM
Experimental: For colony formation, hepatic carcinoma cells were seeded in 6-well plates and treated with Tc3 for almost 10 days, and the cell colonies were photographed for statistical analysis.

[3] = system: SK-Hep1 cells; test: Anti-tumor activity assay (IC50 value), cells counted after three days; details: Homo sapiens, SK-HEP1, 72 h, read-out: IC50 SK-Hep1
Experimental: For half maximal inhibitory concentrations (IC50) analysis, the hepatic carcinoma cells (HepG2, SK-Hep1 and PLC-PRF5) were seeded in 24-well plates respectively, then treated with drugs at concentration gradient for three days. The cells were counted with hemocytometer. […] A is the cell quantity of the control group and B is the cell quantity of the drug treated group. The cell inhibition rate was transformed using its logarithm. And the drug IC50 value were calculated by Graphpad Prsim 9 software with curve fitting of the drug concentration and log (cell inhibition rate).

[4] = system: Hepa1-6 CDXs; test: Anti-PD-1 antibody synergistic effect in vivo; details: C57 BL/6N mice
Text: Balb/c nude mice (female, 6-week-old) were subcutaneously injected with 2 × 10^6 HepG2 cells on the left and right flanks to construct cell-derived xenografts (CDXs). The patient-derived xenografts (PDXs) samples were gifts from Dr Changliang Shan of Nankai University. C57 BL/6N mice (female, 5-week-old) were subcutaneously injected with 2 × 10^6 Hepa1-6 cells mixed with matrigel (ABW, 0827265) on the left and right flanks. The mice were inoculated with hepatic carcinoma CDXs or PDXs for at least four days, and treated (i.p.) by vehicle and Tc3. […] Tumor volume = 4π/3 × (Length/2) × (Width/2)^2. All animal experiments were carried out in accordance with the recommendations of Requirements of the Ethical Review System of Biomedical Research Involving Human by National Health and Family Planning Commission of China and Nankai University Ethics Committee with written informed consent complying with the Declaration of Helsinki (IAEC ID: 2023-STDWLL-000249).
The CDI value of tumor weight was calculated using formula mentioned before.

[5] = system: HepG2 cells; test: RNA sequencing analysis; assay type: cell-based, human; details: HepG2, 4 μM, 24h, versus DMSO
Experimental: HepG2 cells were treated with dimethyl sulfoxide (DMSO) or Tc3 (4 μM) for 24h. And the total RNA was isolated using TRIzol (Solarbio, R1100). Next, the samples were processed and the RNA libraries were constructed by APTBIO company (Shanghai, China). Paired-end reads were aligned to a reference genome index which created using HISAT2, with read assignments to each gene quantified with feature counts. Gene expression was quantified using Transcripts Per Million (TPM). We identified Differentially Expressed Genes (DEGs) using the DESeq2 package in R, defining DEGs as those with an absolute log2 fold change greater than 1 and an adjusted p-value less than 0.05. We performed Gene Ontology (GO) and KEGG pathway enrichment analyses using the "cluster Profiler" package in R. GO terms and KEGG pathways with an adjusted P-value less than 0.05 were statistically significant. Our results were visualized using the ggplot2 and fact extra packages in R.

[6] = system: ROS; test: Reactive Oxygen Species detection (DCFH-DA); assay type: cell-based, human; details: HepG2 cells, 24 h
Experimental: The hepatic carcinoma cells were seeded in 6-well plates and treated with Tc3 for 24 h. The cells were then stained by DCFH-DA (10 μM) for 20 min, washed with PBS buffer for two times, and the fluorescence intensity was captured by a confocal microscope (Leica, TCS SP8).

[7] = system: PRDX1; test: Western blot of PRDX1; assay type: cell-based, human; details: hepatic carcinoma cells
Experimental: (§1) The whole-cell protein was extracted by RIPA lysis buffer contained with protease and phosphatase inhibitor cocktail (MCE, HY-K0010) from cells treated by indole analogues. Proteins were separated by sodium dodecyl sulfate-polyacrylamide gel electrophoresis (SDS-PAGE) gel, and then blotted onto polyvinylidene difluoride membrane (Millipore, IPVH00010). The membranes were incubated with the primary antibodies and the following horseradish peroxidase-conjugated (HRP) secondary antibodies. Next, membranes were washed and developed by ECL regent (Millipore, WBKLS0500).

[8] = system: PERK; test: Western blot of ER stress responders; assay type: cell-based, human; details: HepG2 and SK-Hep1 cells
Experimental: as §1

[9] = system: PLC-PRF5 cells; test: Anti-tumor activity assay (IC50 value), cells counted after three days; assay type: cell-based; details: Homo sapiens, PLC-PRF-5, 72 h
Text: The cells were counted with hemocytometer.

[10] = system: Balb/c mice; test: Subchronic toxicity test; assay type: in vivo
Experimental: And the organ tissues of mice were collected for further H&E staining.
The formalin‐fixed and paraffin‐embedded tissues were cut into 5 μm sections. The sections were firstly soaked in xylene for removing paraffin and soaked in alcohol at decreasing concentration for tapping water. In the H&E staining assay, the sections were stained in Harris’s hematoxylin reagent and eosin reagent in turn. In the IHC staining, the sections were conducted antigen retrieval process and blocked with normal goat serum. Next, sections were incubated with the primary antibodies overnight and incubated with HRP-conjugated secondary antibodies. The tissue images were captured by a microscope.

[11] = in vitro; details: microsomes
Experimental: The reaction media contained liver microsomes (0.5 mg/mL), 1.0 mM β-nicotinamide adenine dinucleotide phosphate (β-NADPH), 3 mM MgCl2 phosphate buffer. Microsomal suspensions were pre-incubated with Tc3 for 3 min at 37℃. The reaction was initiated with the addition of β-NADPH and samples were collected at 0, 5, 15, 30 and 60 min. The negative control was excluded of β-NADPH. Midazolam was incubated similarly as a positive control substrate. At each time point, an aliquot was mixed acetonitrile. Samples were centrifuged and then supernatant was mixed with ultrapure water for LC-MS/MS analysis.

CC(C)[C@H](N)C(=O)NCCCn1cc(/C=C2\S/C(=N\c3ccc(N4CCOCC4)cc3)N(Cc3ccc(F)cc3)C2=O)c2ccccc21 [Tc3]
infiltration of activated CD8^+ T cells in tumors [1]: significantly promoted
tumor proliferation (growth curve, colony formation) [2]: significantly inhibited tumor proliferation
IC50 [3]: 1640 nM
damage to liver, spleen, kidney and small intestine (pathology) ([4]; 10 mg/kg): did not cause significant damage
tumor growth of Hepa1-6 CDXs compared to control groups ([4]; i.p., Tc3 10 mg/kg, anti-PD-1 10 mg/kg): significantly inhibited tumor growth
Number of down-regulated gene [5]: 38
Number of up-regulated gene [5]: 182
number of DEGs [5]: 220
intracellular ROS (DCFH-DA probes) [6]: observably up-regulated
expression of PRDX1 [7]: obviously reduced
PERK activation (western blotting) [8]: activated
IC50 [9]: 1790 nM
glomerular structure of the kidney (HE staining) ([10]; 60 mg/kg): slightly damaged
jejunum crypts and villi (HE staining) ([10]; 60 mg/kg): severely disrupted
weight and health state ([10]; 60 mg/kg i.p.): lower weight and worse health state
lung findings (HE staining) ([10]; i.p. every two days, day 14): alveolar wall thickening and increased numbers of lymphocytes
toxicity to the heart, liver, spleen and stomach (HE staining) ([10]; i.p. every two days, day 14): no significant toxicity
half-life at 1 μM ([11]; human): 0.825 h
microsomal CLint at 1 μM ([11]; human): 28 µL/min/mg
half-life at 1 μM ([11]; mouse): 1.93 h
microsomal CLint at 1 μM ([11]; mouse): 12 µL/min/mg
